ChEMBL document CHEMBL1145312, “Structure-activity relationships of triazolopyridine oxazole p38 inhibitors: identification of candidates for clinical development” (Bioorg Med Chem Lett, 2006)
Values after ≈ are worked out from the molar mass of the structure shown.

Key:
[1] = Solubility in PBS buffer at ph 6.5; type: physicochemical
[2] = Volume of distribution in rat; type: ADME, organism-based; settings: in vivo, read-out: Vdss
[3] = Half life in rat; type: ADME, organism-based; settings: in vivo
[4] = Bioavailability in rat; type: ADME, organism-based; settings: in vivo
[5] = Plasma clearance in monkey; type: ADME, organism-based, Macaca mulatta; settings: rhesus monkey
[6] = Volume of distribution in monkey; type: ADME, organism-based, Macaca mulatta; settings: rhesus monkey, in vivo; read-out: Vdss
[7] = Half life in monkey; type: ADME, organism-based, Macaca mulatta; settings: rhesus monkey, in vivo
[8] = Bioavailability in monkey; type: ADME, organism-based, Macaca mulatta; settings: rhesus monkey, in vivo
[9] = Distribution coefficient, log D of the compound; type: physicochemical; settings: octanol/water
[10] = Plasma clearance in rat; type: ADME, organism-based
[11] = Dissociation constant, pKa of the compound; type: physicochemical
Monocyte = test: Inhibition of LPS-induced TNFalpha production in human monocytes; type: functional, cell-based
hERG (KCNH2) [12] = target: T1, hERG (KCNH2) (Homo sapiens, UniProt Q12809); test: Inhibition of hERG channel current in HEK293 cells at 3 uM; type: toxicity, cell-based; settings: HEK293 cells that express hERG
Rattus norvegicus [13] = species: Rattus norvegicus; test: Inhibition of LPS-induced TNFalpha release in rat; type: functional
[14] = target: Mitogen-activated protein kinase 14 (Homo sapiens, UniProt Q16539); test: Inhibition of p38alpha
Homo sapiens = species: Homo sapiens; test: Inhibition of LPS-induced TNFalpha production in human whole blood; type: functional, organism-based
[15] = target: Dual specificity mitogen-activated protein kinase kinase 1 (Homo sapiens, UniProt Q02750); test: Inhibition of MKK1
[16] = target: c-Jun N-terminal kinase, JNK (Homo sapiens, UniProt P45983+P53779+P45984); test: Inhibition of JNK; type: protein assay
[17] = target: Ribosomal protein S6 kinase alpha-1 (Homo sapiens, UniProt Q15418); test: Inhibition of MAPKAP-K1a
[18] = target: MAP kinase-activated protein kinase 2 (Homo sapiens, UniProt P49137); test: Inhibition of MAPKAP-K2
[19] = target: Ribosomal protein S6 kinase alpha-5 (Homo sapiens, UniProt O75582); test: Inhibition of MSK1
[20] = target: T2, MAP kinase-activated protein kinase 5 (Homo sapiens, UniProt Q8IW41); test: Inhibition of PRAK
T2 sequence (Q8IW41 whole entry): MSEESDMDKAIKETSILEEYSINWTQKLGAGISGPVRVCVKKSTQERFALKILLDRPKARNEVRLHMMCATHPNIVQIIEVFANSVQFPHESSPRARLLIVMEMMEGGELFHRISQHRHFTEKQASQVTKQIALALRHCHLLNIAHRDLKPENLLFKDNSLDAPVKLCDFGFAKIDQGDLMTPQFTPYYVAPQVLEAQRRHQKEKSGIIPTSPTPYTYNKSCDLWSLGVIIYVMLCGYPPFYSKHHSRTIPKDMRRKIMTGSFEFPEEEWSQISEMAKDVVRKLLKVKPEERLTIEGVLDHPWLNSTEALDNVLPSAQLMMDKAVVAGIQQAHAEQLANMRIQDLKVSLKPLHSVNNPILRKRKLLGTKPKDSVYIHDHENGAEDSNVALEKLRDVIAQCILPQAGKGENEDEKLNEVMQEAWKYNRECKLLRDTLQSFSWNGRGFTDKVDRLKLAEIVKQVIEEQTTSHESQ

[21] = target: Protein kinase C alpha type (Homo sapiens, UniProt P17252); test: Inhibition of PKCalpha
[22] = Inhibition of PKC
[23] = target: T3, 3-phosphoinositide-dependent protein kinase 1 (Homo sapiens, UniProt O15530); test: Inhibition of PDK1
T3 sequence (O15530 whole entry): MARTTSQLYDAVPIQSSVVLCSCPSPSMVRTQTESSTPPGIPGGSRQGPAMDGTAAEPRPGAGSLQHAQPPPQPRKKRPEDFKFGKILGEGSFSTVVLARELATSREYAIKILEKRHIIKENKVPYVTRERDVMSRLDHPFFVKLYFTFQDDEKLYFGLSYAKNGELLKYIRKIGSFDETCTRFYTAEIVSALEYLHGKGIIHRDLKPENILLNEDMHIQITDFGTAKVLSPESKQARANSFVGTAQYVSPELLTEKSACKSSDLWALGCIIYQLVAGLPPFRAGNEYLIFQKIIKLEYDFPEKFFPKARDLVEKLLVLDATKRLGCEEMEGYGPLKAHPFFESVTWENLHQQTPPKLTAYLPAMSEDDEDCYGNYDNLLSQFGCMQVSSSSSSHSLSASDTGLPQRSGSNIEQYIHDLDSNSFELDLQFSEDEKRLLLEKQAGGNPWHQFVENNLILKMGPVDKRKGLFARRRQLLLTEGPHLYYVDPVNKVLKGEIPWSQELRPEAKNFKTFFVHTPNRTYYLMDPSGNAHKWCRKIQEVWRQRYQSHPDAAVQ

[24] = target: T4, Serine/threonine-protein kinase Sgk1 (Homo sapiens, UniProt O00141); test: Inhibition of SGK
T4 sequence (O00141 whole entry): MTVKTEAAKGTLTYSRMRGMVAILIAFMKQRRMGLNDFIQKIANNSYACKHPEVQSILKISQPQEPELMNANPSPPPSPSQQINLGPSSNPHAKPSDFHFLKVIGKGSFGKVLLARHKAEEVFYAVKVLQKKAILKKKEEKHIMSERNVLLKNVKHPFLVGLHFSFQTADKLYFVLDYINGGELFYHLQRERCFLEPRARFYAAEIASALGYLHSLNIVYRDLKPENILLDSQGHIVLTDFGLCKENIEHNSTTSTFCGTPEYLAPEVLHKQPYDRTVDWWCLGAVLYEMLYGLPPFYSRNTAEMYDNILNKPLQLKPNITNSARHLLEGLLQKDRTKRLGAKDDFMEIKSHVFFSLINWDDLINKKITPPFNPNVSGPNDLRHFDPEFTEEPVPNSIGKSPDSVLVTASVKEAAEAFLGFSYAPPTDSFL

[25] = target: RAC-alpha serine/threonine-protein kinase (Homo sapiens, UniProt P31749); test: Inhibition of PKBalpha
[26] = target: Ribosomal protein S6 kinase (P70S6K) (Homo sapiens, UniProt P23443+Q9UBS0); test: Inhibition of P70S6K; type: protein-complex assay
[27] = target: Glycogen synthase kinase-3 beta (Homo sapiens, UniProt P49841); test: Inhibition of GSK3-beta
[28] = target: Rho-associated protein kinase 2 (Homo sapiens, UniProt O75116); test: Inhibition of ROCK2
[29] = target: AMP-activated protein kinase, AMPK; test: Inhibition of AMPK; type: protein-complex assay
[30] = target: T5, Serine/threonine-protein kinase Chk1 (Homo sapiens, UniProt O14757); test: Inhibition of CHK1
T5 sequence (O14757 whole entry): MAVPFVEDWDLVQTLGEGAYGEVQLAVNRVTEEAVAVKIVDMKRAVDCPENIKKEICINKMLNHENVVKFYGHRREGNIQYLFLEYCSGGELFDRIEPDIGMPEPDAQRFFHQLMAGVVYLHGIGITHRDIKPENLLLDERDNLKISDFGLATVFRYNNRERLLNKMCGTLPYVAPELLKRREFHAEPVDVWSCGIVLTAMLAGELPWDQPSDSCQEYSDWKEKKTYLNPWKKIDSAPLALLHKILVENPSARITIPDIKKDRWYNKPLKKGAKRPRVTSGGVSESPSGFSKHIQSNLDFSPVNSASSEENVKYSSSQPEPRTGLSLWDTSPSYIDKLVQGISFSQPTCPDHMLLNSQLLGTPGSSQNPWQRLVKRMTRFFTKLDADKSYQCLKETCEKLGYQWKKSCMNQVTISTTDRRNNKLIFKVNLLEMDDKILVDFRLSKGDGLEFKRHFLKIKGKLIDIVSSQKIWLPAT

Casein kinase II = Casein kinase II (Homo sapiens, UniProt P19784+P67870+P68400); test: Inhibition of CK2; type: protein-complex assay
[31] = target: Tyrosine-protein kinase CSK (Homo sapiens, UniProt P41240); test: Inhibition of CSK
[32] = target: Cyclin-dependent kinase 2 (Homo sapiens, UniProt P24941); test: Inhibition of CDK2
[33] = Inhibition of PI3K
[34] = target: Dual specificity tyrosine-phosphorylation-regulated kinase 1A (Homo sapiens, UniProt Q13627); test: Inhibition of DYRK1a
[35] = Inhibition of phosphorylase kinase
[36] = target: Mitogen-activated protein kinase 1 (Homo sapiens, UniProt P28482); test: Inhibition of ERK2
Rattus norvegicus [37] = test: Inhibition of LPS-induced TNFalpha release in rat at 3 mg/kg; type: functional
[38] = target: T6, Mitogen-activated protein kinase 12 (Homo sapiens, UniProt P53778); test: Inhibition of p38-gamma
T6 sequence (P53778 whole entry): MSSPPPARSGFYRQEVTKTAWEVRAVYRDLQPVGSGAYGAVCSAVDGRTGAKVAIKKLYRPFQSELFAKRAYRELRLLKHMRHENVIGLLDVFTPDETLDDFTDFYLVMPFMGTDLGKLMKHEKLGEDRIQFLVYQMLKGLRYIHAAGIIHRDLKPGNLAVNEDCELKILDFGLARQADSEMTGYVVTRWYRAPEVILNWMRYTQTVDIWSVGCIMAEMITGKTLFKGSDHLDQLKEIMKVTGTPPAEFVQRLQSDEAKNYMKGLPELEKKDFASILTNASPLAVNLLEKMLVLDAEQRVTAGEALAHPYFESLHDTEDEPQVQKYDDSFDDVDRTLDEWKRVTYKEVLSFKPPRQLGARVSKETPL

[39] = target: Tyrosine-protein kinase Lck (Homo sapiens, UniProt P06239); test: Inhibition of Lck
[40] = Permeability from apical to basolateral side of Caco-2 cell membrane; type: ADME, cell-based; settings: human
hERG (KCNH2) [41] = target: T1, hERG (KCNH2); test: Inhibition of hERG channel current in HEK293 cells at 1 uM; type: toxicity, cell-based; settings: HEK293 cells that express hERG
[42] = Permeability from basolateral to apical side of Caco-2 cell membrane; type: ADME, cell-based; settings: human

Mitogen-activated protein kinase 14, sequence (Q16539 whole entry): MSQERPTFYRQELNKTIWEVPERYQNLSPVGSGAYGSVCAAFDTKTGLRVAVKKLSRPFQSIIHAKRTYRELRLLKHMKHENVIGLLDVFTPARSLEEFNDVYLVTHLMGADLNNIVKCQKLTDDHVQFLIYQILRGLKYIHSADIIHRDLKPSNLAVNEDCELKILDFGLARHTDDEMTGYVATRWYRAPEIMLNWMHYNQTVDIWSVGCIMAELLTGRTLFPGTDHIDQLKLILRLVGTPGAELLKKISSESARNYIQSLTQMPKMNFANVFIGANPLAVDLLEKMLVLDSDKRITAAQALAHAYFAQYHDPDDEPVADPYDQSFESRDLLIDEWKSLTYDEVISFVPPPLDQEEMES
T1 sequence (Q12809 whole entry): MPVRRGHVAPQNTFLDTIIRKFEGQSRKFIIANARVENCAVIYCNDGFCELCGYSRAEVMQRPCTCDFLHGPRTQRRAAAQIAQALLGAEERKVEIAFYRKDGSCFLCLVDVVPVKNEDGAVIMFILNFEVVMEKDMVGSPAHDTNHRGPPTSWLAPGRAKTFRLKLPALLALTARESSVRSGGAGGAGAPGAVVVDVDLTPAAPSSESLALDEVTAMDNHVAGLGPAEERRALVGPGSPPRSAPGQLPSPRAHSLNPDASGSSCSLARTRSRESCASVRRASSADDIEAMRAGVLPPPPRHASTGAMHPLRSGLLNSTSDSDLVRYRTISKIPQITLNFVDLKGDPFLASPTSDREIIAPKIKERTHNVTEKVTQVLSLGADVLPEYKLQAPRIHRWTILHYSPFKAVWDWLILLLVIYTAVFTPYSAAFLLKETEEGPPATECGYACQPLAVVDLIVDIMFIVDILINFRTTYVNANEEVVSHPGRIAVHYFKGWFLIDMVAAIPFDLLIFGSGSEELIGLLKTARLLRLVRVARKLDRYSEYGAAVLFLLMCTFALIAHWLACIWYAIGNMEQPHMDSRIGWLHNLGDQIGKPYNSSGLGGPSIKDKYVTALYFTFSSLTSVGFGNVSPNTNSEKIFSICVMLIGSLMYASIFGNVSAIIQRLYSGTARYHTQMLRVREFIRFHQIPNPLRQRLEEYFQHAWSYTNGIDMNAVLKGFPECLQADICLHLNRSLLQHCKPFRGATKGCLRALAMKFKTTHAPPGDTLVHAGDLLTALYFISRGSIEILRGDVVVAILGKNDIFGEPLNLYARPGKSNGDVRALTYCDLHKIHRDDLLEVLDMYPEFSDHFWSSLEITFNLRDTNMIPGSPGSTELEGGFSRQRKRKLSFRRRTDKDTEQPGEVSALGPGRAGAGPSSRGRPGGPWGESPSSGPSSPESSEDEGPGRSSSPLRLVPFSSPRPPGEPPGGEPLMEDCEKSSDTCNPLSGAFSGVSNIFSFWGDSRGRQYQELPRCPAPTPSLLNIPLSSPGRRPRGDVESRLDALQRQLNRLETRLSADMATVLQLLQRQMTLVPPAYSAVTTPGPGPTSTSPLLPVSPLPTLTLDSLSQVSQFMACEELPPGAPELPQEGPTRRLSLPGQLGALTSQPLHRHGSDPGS
Dual specificity mitogen-activated protein kinase kinase 1, sequence (Q02750 whole entry): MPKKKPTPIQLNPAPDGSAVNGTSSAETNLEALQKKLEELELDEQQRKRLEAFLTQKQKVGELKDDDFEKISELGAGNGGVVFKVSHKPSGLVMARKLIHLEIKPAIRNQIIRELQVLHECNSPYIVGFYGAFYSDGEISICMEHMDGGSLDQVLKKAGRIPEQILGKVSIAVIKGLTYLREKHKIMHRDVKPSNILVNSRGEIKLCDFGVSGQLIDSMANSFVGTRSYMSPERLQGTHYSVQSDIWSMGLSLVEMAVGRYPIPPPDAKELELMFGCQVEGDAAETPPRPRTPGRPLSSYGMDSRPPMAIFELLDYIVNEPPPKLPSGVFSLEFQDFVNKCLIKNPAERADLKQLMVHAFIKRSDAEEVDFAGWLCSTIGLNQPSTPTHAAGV
Casein kinase II, sequence (P67870 whole entry): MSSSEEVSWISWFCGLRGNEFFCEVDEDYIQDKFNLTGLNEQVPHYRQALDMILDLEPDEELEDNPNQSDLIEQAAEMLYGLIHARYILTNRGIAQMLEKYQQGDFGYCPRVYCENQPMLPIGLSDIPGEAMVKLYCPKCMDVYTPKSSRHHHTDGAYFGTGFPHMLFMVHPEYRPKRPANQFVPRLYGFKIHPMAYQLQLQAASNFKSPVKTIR
Casein kinase II, sequence (P68400 whole entry): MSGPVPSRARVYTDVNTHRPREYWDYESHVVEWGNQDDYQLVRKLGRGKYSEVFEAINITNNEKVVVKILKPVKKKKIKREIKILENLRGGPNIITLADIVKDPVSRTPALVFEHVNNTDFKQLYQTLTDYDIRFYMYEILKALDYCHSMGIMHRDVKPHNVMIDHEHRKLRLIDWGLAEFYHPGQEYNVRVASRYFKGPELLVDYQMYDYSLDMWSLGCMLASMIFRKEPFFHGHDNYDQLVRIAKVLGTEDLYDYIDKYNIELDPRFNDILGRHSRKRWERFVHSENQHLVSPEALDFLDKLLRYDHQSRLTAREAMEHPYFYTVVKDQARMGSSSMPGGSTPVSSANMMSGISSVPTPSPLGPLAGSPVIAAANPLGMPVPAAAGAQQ
Casein kinase II, sequence (P19784 whole entry): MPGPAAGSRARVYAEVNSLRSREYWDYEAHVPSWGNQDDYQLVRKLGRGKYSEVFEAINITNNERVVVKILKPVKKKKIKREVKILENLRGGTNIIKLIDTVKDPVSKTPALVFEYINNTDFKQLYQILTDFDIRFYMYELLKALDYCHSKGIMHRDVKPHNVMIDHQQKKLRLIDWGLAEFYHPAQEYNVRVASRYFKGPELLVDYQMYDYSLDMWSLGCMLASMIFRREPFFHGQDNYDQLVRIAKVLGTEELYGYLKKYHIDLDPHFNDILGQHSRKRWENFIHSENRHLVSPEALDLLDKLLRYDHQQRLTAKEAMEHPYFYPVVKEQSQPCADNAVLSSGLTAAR
Ribosomal protein S6 kinase alpha-5, sequence (O75582 whole entry): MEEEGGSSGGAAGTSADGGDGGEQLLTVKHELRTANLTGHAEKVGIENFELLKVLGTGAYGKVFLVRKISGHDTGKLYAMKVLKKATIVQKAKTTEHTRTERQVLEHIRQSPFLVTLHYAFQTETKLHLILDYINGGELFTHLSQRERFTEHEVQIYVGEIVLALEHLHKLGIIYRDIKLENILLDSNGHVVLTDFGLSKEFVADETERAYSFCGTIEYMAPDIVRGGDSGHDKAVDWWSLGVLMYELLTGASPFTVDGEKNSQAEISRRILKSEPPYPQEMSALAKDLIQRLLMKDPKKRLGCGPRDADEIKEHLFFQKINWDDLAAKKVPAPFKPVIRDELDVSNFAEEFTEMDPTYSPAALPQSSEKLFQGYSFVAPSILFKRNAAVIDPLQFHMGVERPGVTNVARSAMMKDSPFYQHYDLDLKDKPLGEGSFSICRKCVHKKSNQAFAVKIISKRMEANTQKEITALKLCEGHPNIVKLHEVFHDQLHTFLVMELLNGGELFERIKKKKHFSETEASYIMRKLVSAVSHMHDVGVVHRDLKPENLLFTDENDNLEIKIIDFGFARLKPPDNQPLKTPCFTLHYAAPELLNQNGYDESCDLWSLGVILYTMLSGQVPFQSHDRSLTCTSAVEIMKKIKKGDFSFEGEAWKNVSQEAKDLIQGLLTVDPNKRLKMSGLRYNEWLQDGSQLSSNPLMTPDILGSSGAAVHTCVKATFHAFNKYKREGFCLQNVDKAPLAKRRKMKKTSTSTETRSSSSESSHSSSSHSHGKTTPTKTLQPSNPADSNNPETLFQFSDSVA
Mitogen-activated protein kinase 1, sequence (P28482 whole entry): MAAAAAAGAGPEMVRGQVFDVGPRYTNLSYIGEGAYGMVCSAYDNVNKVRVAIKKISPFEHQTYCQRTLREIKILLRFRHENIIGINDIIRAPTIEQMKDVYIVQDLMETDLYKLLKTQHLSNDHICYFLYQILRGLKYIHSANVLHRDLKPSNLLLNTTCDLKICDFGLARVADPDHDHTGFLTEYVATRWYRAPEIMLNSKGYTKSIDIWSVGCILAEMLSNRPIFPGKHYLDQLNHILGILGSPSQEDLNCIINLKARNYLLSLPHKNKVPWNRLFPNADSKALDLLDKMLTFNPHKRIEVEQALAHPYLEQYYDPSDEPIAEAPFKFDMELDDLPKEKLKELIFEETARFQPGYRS
Glycogen synthase kinase-3 beta, sequence (P49841 whole entry): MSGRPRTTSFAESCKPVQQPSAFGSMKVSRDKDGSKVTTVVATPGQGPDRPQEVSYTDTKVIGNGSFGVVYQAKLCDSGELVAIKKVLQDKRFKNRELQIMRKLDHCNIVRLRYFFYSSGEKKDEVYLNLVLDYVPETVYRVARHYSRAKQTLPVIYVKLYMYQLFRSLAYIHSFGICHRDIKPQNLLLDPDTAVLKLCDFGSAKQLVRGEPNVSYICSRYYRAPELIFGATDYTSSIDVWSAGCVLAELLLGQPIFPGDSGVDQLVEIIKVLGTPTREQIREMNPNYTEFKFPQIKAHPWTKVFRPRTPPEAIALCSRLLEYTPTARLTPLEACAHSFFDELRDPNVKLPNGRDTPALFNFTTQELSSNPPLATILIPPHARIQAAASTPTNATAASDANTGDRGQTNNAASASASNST
MAP kinase-activated protein kinase 2, sequence (P49137 whole entry): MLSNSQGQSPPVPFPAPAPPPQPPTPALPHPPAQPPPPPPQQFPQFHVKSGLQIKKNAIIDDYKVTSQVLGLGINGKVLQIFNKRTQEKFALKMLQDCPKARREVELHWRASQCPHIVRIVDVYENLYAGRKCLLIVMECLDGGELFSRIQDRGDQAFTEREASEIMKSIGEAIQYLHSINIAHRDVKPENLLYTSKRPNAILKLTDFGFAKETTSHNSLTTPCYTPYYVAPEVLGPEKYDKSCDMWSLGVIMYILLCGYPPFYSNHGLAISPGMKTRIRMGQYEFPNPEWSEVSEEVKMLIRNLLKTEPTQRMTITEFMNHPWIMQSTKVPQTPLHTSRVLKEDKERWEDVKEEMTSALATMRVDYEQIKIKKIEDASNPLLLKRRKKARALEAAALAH

solubility [1]	Vd [2]	bioavailability [4]	Vd [6]	bioavailability [8]	IC50 (Monocyte)	IC50 [14]	IC50 (Homo sapiens)	IC50 [15]	IC50 [16]	IC50 [17]	IC50 [18]	IC50 [19]	IC50 [20]	SMILES	half-life [3]	clearance [5]	half-life [7]	clearance [10]	inhibition at 3 µM (hERG (KCNH2) [12])	ED50 (Rattus norvegicus [13])	further results
29.6 µg/mL (≈ 91.8 µM)	0.8 L/kg	85%	1.8 L/kg	75%	–	–	–	–	–	–	–	–	–	CC(C)c1nnc2ccc(-c3ocnc3-c3ccc(F)cc3)cn12	0.7 h	16 mL/min/kg	1.3 h	12 mL/min/kg	–	–	logD [9]: 2.18; pKa [11]: 2.86
8.1 µg/mL (≈ 23.8 µM)	0.8 L/kg	58%	1.3 L/kg	40%	0.025 µM	0.0058 µM	0.259 µM	–	–	–	–	–	–	CC(C)c1nnc2ccc(-c3ocnc3-c3cc(F)ccc3F)cn12	–	–	–	–	–	0.3 mg/kg	Papp A→B [40]: 43 ×10⁻⁶ cm/s; inhibition at 1 µM (hERG (KCNH2) [41]): 0%; Papp B→A [42]: 29 ×10⁻⁶ cm/s

More lines, now with the values behind:

SMILES	solubility [1]	Vd [2]	bioavailability [4]	Vd [6]	bioavailability [8]	IC50 (Monocyte)	IC50 [14]	IC50 (Homo sapiens)	IC50 [15]	IC50 [16]	IC50 [17]	IC50 [18]	IC50 [19]	IC50 [20]	half-life [3]	clearance [5]	half-life [7]	clearance [10]	inhibition at 3 µM (hERG (KCNH2) [12])	ED50 (Rattus norvegicus [13])	further results
CC(C)c1nnc2ccc(-c3ocnc3-c3cccc(Cl)c3)cn12	5.2 µg/mL (≈ 15.3 µM)	1 L/kg	37%	1 L/kg	19%	0.0523 µM	0.0135 µM	0.55 µM	–	–	–	–	–	–	1.6 h	15 mL/min/kg	1.1 h	17 mL/min/kg	14%	2.4 mg/kg	–
CC(C)c1nnc2ccc(-c3ocnc3-c3cc(F)c(F)cc3F)cn12	–	–	–	–	–	0.0197 µM	0.0032 µM	0.263 µM	> 10 µM	> 10 µM	> 10 µM	> 10 µM	> 10 µM	> 10 µM	–	–	–	–	–	–	IC50 [21]: > 10 µM; IC50 [22]: > 10 µM; IC50 [23]: > 10 µM; IC50 [24]: > 10 µM; IC50 [25]: > 10 µM; IC50 [26]: > 10 µM; IC50 [27]: > 10 µM; IC50 [28]: > 10 µM; IC50 [29]: > 10 µM; IC50 [30]: > 10 µM; IC50 (Casein kinase II): > 10 µM; IC50 [31]: > 10 µM; IC50 [32]: > 10 µM; IC50 [33]: > 10 µM; IC50 [34]: > 10 µM; IC50 [35]: > 10 µM; IC50 [36]: > 10 µM
CC(C)c1nnc2ccc(-c3ocnc3-c3ccc(F)cc3Cl)cn12	81 µg/mL (≈ 227 µM)	–	–	–	–	0.0245 µM	0.0025 µM	0.38 µM	> 10 µM	> 10 µM	> 10 µM	> 10 µM	> 10 µM	> 10 µM	–	–	–	–	0%	–	inhibition in vivo at 3 mg/kg (Rattus norvegicus [37]): 94%; IC50 [38]: > 10 µM; IC50 [21]: > 10 µM; IC50 [22]: > 10 µM; IC50 [24]: > 10 µM; IC50 [25]: > 10 µM; IC50 [26]: > 10 µM; IC50 [27]: > 10 µM; IC50 [28]: > 10 µM; IC50 [29]: > 10 µM; IC50 [30]: > 10 µM; IC50 (Casein kinase II): > 10 µM; IC50 [39]: > 10 µM; IC50 [31]: > 10 µM; IC50 [32]: > 10 µM; IC50 [33]: > 10 µM; IC50 [34]: > 10 µM; IC50 [35]: > 10 µM; IC50 [36]: > 10 µM
